For the assay, the system named is AKR/Lw mice, AKR lymphoma ip, median survival T/C. The assay is described as follows: NCI In Vivo Anticancer Drug Screen. Data for tumor model Lymphoma AKR (Transplanted) (intraperitoneal) in AKR/Lw mice. Conditions: endpoint: median survival time, higher = longer survival. As to the method: The antitumor activity of compounds was measured in mice bearing transplantable tumors. Survival or tumor size were measured and the results are expressed as the measurement made in the treated group (T) divided by the measurement made in the vehicle treated control group (C). The tumor model used in this assay is Lymphoma AKR (Transplanted) (intraperitoneal) in AKR/Lw mice

Where [1] appears, read: dose: 100.0 mg/kg/injection, schedule: Q01DX001 (ip), vehicle: saline.
The mark [2] stands for this setting: dose: 25.0 mg/kg/injection, schedule: Q01DX001 (ip), vehicle: Klucel (hydroxypropylcellulose) (HPC).
Setting [3] is: dose: 50.0 mg/kg/injection, schedule: Q01DX001 (ip), vehicle: Klucel (hydroxypropylcellulose) (HPC).
The mark [4] stands for this setting: dose: 200.0 mg/kg/injection, schedule: Q01DX001 (ip), vehicle: Klucel (hydroxypropylcellulose) (HPC).
The mark [5] stands for this setting: dose: 200.0 mg/kg/injection, schedule: Q01DX001 (ip), vehicle: other.
[6] abbreviates: dose: 400.0 mg/kg/injection, schedule: Q01DX001 (ip), vehicle: other.
Setting [7] is: dose: 100.0 mg/kg/injection, schedule: Q01DX001 (ip), vehicle: other.
Where [8] appears, read: dose: 100.0 mg/kg/injection, schedule: Q01DX001 (ip), vehicle: saline with Tween-80.
[9] abbreviates: dose: 400.0 mg/kg/injection, schedule: Q01DX001 (ip), vehicle: saline with Tween-80.
The mark [10] stands for this setting: dose: 200.0 mg/kg/injection, schedule: Q01DX001 (ip), vehicle: saline.
Where [11] appears, read: dose: 400.0 mg/kg/injection, schedule: Q01DX001 (ip), vehicle: saline.

Structures are written as SMILES. Several values for one entry are separate records, joined by “and”; a condition that tells them apart may be missing. Equal values may be shown once. Inconclusive results and toxic doses are left out.

Consider `O=C[C@@H](CO)O[C@H](C=O)n1cnc2c(=O)[nH]cnc21`, for which the T/C runs as follows: (dose: 3.0 mg/kg/injection, schedule: Q01DX009 (ip), vehicle: saline) 104 % of control and 123 % of control; (dose: 6.0 mg/kg/injection, schedule: Q01DX009 (ip), vehicle: saline) 102 % of control and 108 % of control and 121 % of control; (dose: 6.2 mg/kg/injection, schedule: Q04DX003 (ip), vehicle: saline) 102 % of control; (dose: 6.25 mg/kg/injection, schedule: Q01DX009 (ip), vehicle: saline) 112 % of control; (dose: 12.0 mg/kg/injection, schedule: Q01DX009 (ip), vehicle: saline) 100 % of control and 112 % of control; (dose: 12.5 mg/kg/injection, schedule: Q01DX009 (ip), vehicle: saline) 94 % of control and 106 % of control. In addition, the T/C (dose: 12.5 mg/kg/injection, schedule: Q04DX003 (ip), vehicle: saline) was 100 % of control and 105 % of control; the T/C (dose: 24.0 mg/kg/injection, schedule: Q01DX009 (ip), vehicle: saline) was 112 % of control; the T/C (dose: 25.0 mg/kg/injection, schedule: Q01DX001 (ip), vehicle: saline) was 89 % of control and 105 % of control; the T/C (dose: 25.0 mg/kg/injection, schedule: Q04DX003 (ip), vehicle: saline) is 87 % of control and 113 % of control; the T/C (dose: 50.0 mg/kg/injection, schedule: Q01DX001 (ip), vehicle: saline) was 89 % of control; the T/C (dose: 60.0 mg/kg/injection, schedule: Q04DX003 (ip), vehicle: water) was 114 % of control. For the same molecule, the T/C (dose: 75.0 mg/kg/injection, schedule: Q01DX009 (ip), vehicle: saline) is 103 % of control and 238 % of control; the T/C under setting [1] is 92 % of control and 97 % of control (2×); the T/C (dose: 240.02 mg/kg/injection, schedule: Q04DX003 (ip), vehicle: water) was 222 % of control; the T/C (dose: 500.0 mg/kg/injection, schedule: Q01DX001 (ip), vehicle: saline) was 120 % of control.
Regarding `CC(=O)c1ccc2ccccc2c1O`, the T/C was 102 % of control under setting [2]; 88 % of control under setting [3]; 88 % of control under setting [4]; 104 % of control under setting [5]; 111 % of control under setting [6].
For the molecule `CC(=O)CC(=O)Nc1ccc([N+](=O)[O-])cc1`, the T/C is, setting by setting: (dose: 50.0 mg/kg/injection, schedule: Q01DX001 (ip), vehicle: other) 100 % of control; under setting [7], 98 % of control; under setting [8], 96 % of control; under setting [5], 94 % of control; under setting [6], 86 % of control; under setting [9], 92 % of control.
For the molecule `COc1cc2c(cc1OC)[C@H]1CNC[C@H]1[C@@H](c1ccccc1)C2`, the T/C is 110 % of control (dose: 75.0 mg/kg/injection, schedule: Q04DX003 (ip), vehicle: saline); 105 % of control under setting [1]; 103 % of control (dose: 150.0 mg/kg/injection, schedule: Q04DX003 (ip), vehicle: saline); 100 % of control under setting [10]; 97 % of control under setting [11].
As to `CC(C)n1c(=S)[nH]c2ccccc2c1=O`, the T/C (dose: 100.0 mg/kg/injection, schedule: Q01DX001 (ip), vehicle: Klucel (hydroxypropylcellulose) (HPC)) is 90 % of control; the T/C under setting [4] is 118 % of control; the T/C (dose: 400.0 mg/kg/injection, schedule: Q01DX001 (ip), vehicle: Klucel (hydroxypropylcellulose) (HPC)) was 104 % of control.
As for `COC(=O)C(COS(=O)(=O)c1ccccc1)NC(=O)OCc1ccccc1` (stereo not drawn), the T/C is 94 % of control under setting [1], 97 % of control under setting [10] and 102 % of control under setting [11].
As for `OCC1(O)CC(O)C(O)(CO)CC1O` (stereo not drawn), the T/C was 97 % of control under setting [1], 116 % of control under setting [10] and 104 % of control under setting [11].
In the case of `c1cc2cc3c(cc2cc1CC1=NCCc2cc4c(cc21)OCO4)OCO3`, the T/C was 105 % of control under setting [7]; 100 % of control (dose: 100.0 mg/kg/injection, schedule: Q04DX003 (ip), vehicle: other); 100 % of control under setting [5]; 100 % of control (dose: 200.0 mg/kg/injection, schedule: Q04DX003 (ip), vehicle: other); 102 % of control under setting [6]; 100 % of control (dose: 400.0 mg/kg/injection, schedule: Q04DX003 (ip), vehicle: other).
In the case of `CC(/C=N/N=C(N)N)=N\N=C(N)N`, the T/C is 87 % of control (dose: 1.5 mg/kg/injection, schedule: Q01DX015 (ip), vehicle: saline); 90 % of control (dose: 5.0 mg/kg/injection, schedule: Q01DX015 (ip), vehicle: saline); 96 % of control (dose: 6.25 mg/kg/injection, schedule: Q01DX015 (ip), vehicle: saline); 90 % of control (dose: 10.0 mg/kg/injection, schedule: Q01DX015 (ip), vehicle: saline).
Consider `C1CCN2CC3CC(CN4CCCCC34)C2C1` (stereo not drawn), for which the T/C was 100 % of control (dose: 10.0 mg/kg/injection, schedule: Q01DX001 (ip), vehicle: saline); 100 % of control (dose: 20.0 mg/kg/injection, schedule: Q01DX001 (ip), vehicle: saline); 100 % of control (dose: 40.0 mg/kg/injection, schedule: Q01DX001 (ip), vehicle: saline).
Consider `CC1(C)N=C(N)N=C(N)N1c1cc(Cl)c(Cl)cc1Cl`, for which the T/C under setting [2] was 106 % of control; the T/C (dose: 35.0 mg/kg/injection, schedule: Q01DX001 (ip), vehicle: Klucel (hydroxypropylcellulose) (HPC)) was 100 % of control; the T/C under setting [3] was 106 % of control.
For `O=C(Nc1cccc(Cl)c1)Oc1ccc2ccccc2c1`, the T/C by setting is: under setting [8], 100 % of control; (dose: 100.0 mg/kg/injection, schedule: Q01DX009 (ip), vehicle: saline) 92 % of control; (dose: 200.0 mg/kg/injection, schedule: Q01DX001 (ip), vehicle: saline with Tween-80) 100 % of control; (dose: 200.0 mg/kg/injection, schedule: Q01DX009 (ip), vehicle: saline) 112 % of control; under setting [9], 105 % of control; (dose: 400.0 mg/kg/injection, schedule: Q04DX003 (ip), vehicle: saline) 93 % of control.

The values above are taken from PubChem BioAssay AID190 (DTP/NCI, 2004).
